Results as given in patent US20260101897A1, “PLANT ENVIRONMENTAL STRESS TOLERANCE IMPROVEMENT AGENT AND ENVIRONMENTAL STRESS TOLERANCE IMPROVEMENT METHOD” (priority 2022, published 2026).

Assays:
Type in all cases: in vivo
[1] = test system: Arabidopsis thaliana (Col-0); assay: Evaluation Example 12: tolerance to intense light stress, leaf whitening; conditions: for Leaf whitening rate: test compound 0.1 mM (12.5 mL), intense light stress Yes (LED light, 24 hours); for Environmental stress suppressing rate: test compound 0.1 mM, intense light stress Yes
Description: EGT and GB were commercially available products, and pure water was used as a solvent. In a plastic pot having a diameter of 60 mm and a height of 55 mm, 90 mL of culture soil (manufactured by Hanagokoro Co., Ltd.) was placed, and 4 individual Arabidopsis thaliana (Col-0) were seeded per pot. They were located in a growth chamber set at room temperature of 22° C., and the light period was 16 hours and the dark period was 8 hours. The light conditions were set such that the light intensity was 5000 lx in the central part under irradiation with the fluorescent lamp. 12.5 mL of EGT or 12.5 mL of GB was added on the 43rd day after seeding, and one day after that, intense light stress was applied by exposure for 24 hours under irradiation of LED light (manufactured by Esbaybulbs Co., Ltd.) with a light intensity set to 2000 μmol/m 2/sec. Whitened leaves of Arabidopsis thaliana subjected to intense light stress were counted, and the leaf whitening rate was evaluated as an index of physiological disorder. The leaf whitening rate and the environmental stress suppressing rate were calculated according to the following formulas. [formula] [formula]

arugula = assay: Evaluation Example 15: tolerance to low temperature stress, leaf wilting; conditions: for Environmental stress suppressing rate: low temperature stress Yes
Description: EGT (Examples 19 and 20, Comparative Examples 66 and 67) or GB (Comparative Example 64, 65, 68 and 69) was prepared so as to have a concentration shown in Table 15 below. EGT and GB were commercially available products, and pure water was used as a solvent.
(§1) 1 mL of pure water was added to 3.5-cm petri dishes on which filter paper was placed, and 5 arugula seeds were seeded per petri dish. They were located in a growth chamber set at room temperature of 22° C., and the light period was 16 hours and the dark period was 8 hours. The light conditions were set such that the light intensity was 5000 lx in the central part under irradiation with the fluorescent lamp.
On the 4th day after seeding, pure water in the petri dish was removed, and then 1 mL of EGT or 1 mL of GB was added, and 24 hours after that, low temperature stress was applied by exposure to an environment of 4° C. for 48 hours.
The number of wilted arugula leaves was evaluated 3 days after the low temperature stress was applied. The leaf wilting rate and the environmental stress suppressing rate were calculated according to the following formulas.

soybean plant = assay: Evaluation Example 6: tolerance to drying stress, leaf mortality; conditions: for Leaf mortality rate / Environmental stress suppressing rate: drying stress Yes; for Leaf mortality rate: 7 days after stoppage of water
Description: EGT and GB were commercially available products, and pure water was used as a solvent. In a 60 mm square plastic pot having a height of 66 mm, 150 ml of granular soil (Kumiai horticultural soil) was placed, and one individual soybean plant was seeded per pot. They were managed in a greenhouse set at room temperature of 25° C. EGT in an amount of 50 mL or GB in an amount of 50 mL was added on the 23rd day after seeding, and drying stress was applied by stopping water supply for 7 days after the addition of EGT or GB. Dead leaves were counted 7 days after the stoppage of water, and the leaf mortality rate was evaluated as an index of physiological disorder. The leaf mortality rate and the environmental stress suppressing rate were calculated according to the following formulas. [formula] [formula]

turf (Manila grass) = assay: Evaluation Example 8: tolerance to drying stress, leaf mortality; conditions: for Leaf mortality rate: test compound 0.1 mM (12.5 mL), water supply stopped 7 days twice; for Leaf mortality rate / Environmental stress suppressing rate: drying stress Yes; for Environmental stress suppressing rate: test compound 0.1 mM
Description: EGT and GB were commercially available products, and pure water was used as a solvent.
In a plastic pot having a diameter of 135 mm and a height of 110 mm, 1 L of a raising seedling culture soil (manufactured by Kanetaki Co., Ltd.) was placed, and 100 mm square of turf (Manila grass) was planted per pot.
They were managed in a greenhouse set at room temperature of 25° C. 12.5 mL of EGT or 12.5 mL of GB was added about one month after planting, and water supply was stopped for 7 days thereafter. After cultivation under water supply for 7 days, drying stress was applied by stopping water supply for 7 days again.
The dead leaves of turf to which the drying stress was applied were counted, and the leaf mortality rate was evaluated as an index of physiological disorder. The leaf mortality rate and the environmental stress suppressing rate were calculated according to the following formulas.

rapeseed = assay: Evaluation Example 9: tolerance to excessive water stress, plant mortality; conditions: for Environmental stress suppressing rate: excessive water stress Yes
Description: EGT (Example 11, Comparative Example 31) or GB (Comparative Examples 30 and 32) was prepared so as to have a concentration shown in Table 9 below. EGT and GB were commercially available products, and pure water was used as a solvent.
as §1, with “5 mL” for “1 mL”, “to 9-cm” for “to 3.5-cm”, “and 12 rapeseed” for “and 5 arugula”
On the sixth day after seeding, pure water in the petri dish was removed, 5 mL of EGT or 5 mL of GB was added to the petri dish, and one day after that, 50 mL of pure water was added to the petri dish to apply excessive water stress.
5 The surviving plants were counted 19 days after the excessive water stress was applied, and the mortality rate of the plants was evaluated as an index of physiological disorder. The mortality rate and the environmental stress suppressing rate were calculated according to the following formulas.

broccoli = assay: Evaluation Example 13: tolerance to freezing stress, plant mortality; conditions: for Environmental stress suppressing rate: freezing stress Yes
Description: EGT (Example 17, Comparative Example 55) or GB (Comparative Examples 54 and 56) was prepared so as to have the concentration shown in Table 13 below. EGT and GB were commercially available products, and pure water was used as a solvent.
as §1, with “5 mL” for “1 mL”, “to 9-cm” for “to 3.5-cm”, “and 10 broccoli” for “and 5 arugula”
On the 6th day after seeding, pure water in the petri dish was removed, and then, 5 mL of EGT or 5 mL of GB was added to the petri dish, and freezing stress was applied by, 14 days after the addition, a first exposure to an environment of −20° C. for 20 minutes, and, 1 day after the first exposure, a second exposure to an environment of −20° C. for 20 minutes.
The surviving plants were counted 24 hours after the freezing stress was applied, and the mortality rate of the plants was evaluated as an index of physiological disorder. The mortality rate and the environmental stress suppressing rate were calculated according to the following formulas.

[2] = test compound 0.1 mM (1 mL), low temperature stress Yes (4° C. for 48 hours), 3 days after stress
[3] = test compound 0.1 mM, low temperature stress No
[4] = test compound 1 mM (1 mL), low temperature stress Yes (4° C. for 48 hours), 3 days after stress
[5] = test compound 1 mM, low temperature stress No
[6] = test compound 0.1 mM (5 mL), excessive water stress Yes (50 mL pure water per petri dish), 19 days after stress
[7] = test compound 0.1 mM, excessive water stress No
[8] = test compound 0.1 mM (5 mL), freezing stress Yes (−20° C. for 20 minutes, twice), 24 hours after stress
[9] = test compound 0.1 mM, freezing stress No

SMILES	Leaf whitening rate [1] [%]	Environmental stress suppressing rate [1] [%]	Leaf wilting rate (arugula; [2]) [%]	Leaf wilting rate (arugula; [3]) [%]	Environmental stress suppressing rate (arugula; test compound 0.1 mM) [%]	Leaf wilting rate (arugula; [4]) [%]	Leaf wilting rate (arugula; [5]) [%]	Environmental stress suppressing rate (arugula; test compound 1 mM) [%]	Leaf mortality rate (soybean plant; test compound 0.1 mM (50 mL)) [%]	Environmental stress suppressing rate (soybean plant; test compound 0.1 mM) [%]	Leaf mortality rate (soybean plant; test compound 1 mM (50 mL)) [%]	Environmental stress suppressing rate (soybean plant; test compound 1 mM) [%]	Leaf mortality rate (turf (Manila grass)) [%]	Environmental stress suppressing rate (turf (Manila grass)) [%]	Mortality rate (rapeseed; [6]) [%]	Mortality rate (rapeseed; [7]) [%]	Environmental stress suppressing rate (rapeseed; test compound 0.1 mM) [%]	Mortality rate (broccoli; [8]) [%]	Mortality rate (broccoli; [9]) [%]	Environmental stress suppressing rate (broccoli; test compound 0.1 mM) [%]	also measured
C[N+](C)(C)[C@@H](Cc1c[nH]c(=S)[nH]1)C(=O)[O-] [EGT, L-(+)-ergothioneine]	8	78	0	0	100	0	0	100	55	11	38	39	35	65	25	0	58	38	0	56	
C[N+](C)(C)CC(=O)[O-] [GB, glycine betaine, reference compound]	40	0	60	0	10	60	0	10	71	0	62	0	100	0	60	0	0	100	0	0	leaf whitening due to intense light stress, result in words ([1]; 0.1 mM, intense light stress): not suppressed; leaf wilting rate due to low temperature stress, result in words (arugula; GB 1 mM and 0.1 mM, low temperature stress): hardly suppressed; mortality rate due to drying stress, result in words (soybean plant; GB 1 mM and 0.1 mM, drying stress): not suppressed; mortality rate due to drying stress, result in words (turf (Manila grass); 0.1 mM, drying stress): not suppressed; mortality rate due to excessive water stress, result in words (rapeseed; 0.1 mM, excessive water stress): not suppressed; mortality rate due to freezing stress, result in words (broccoli; 0.1 mM, freezing stress): not suppressed
